Here are results for three compounds from patent publication US20180153830A1, “SELECTIVE INHIBITORS OF UNDIFFERENTIATED CELLS” (Yissum Research Development Company of the Hebrew …, priority 2012, published 2018).

Molecules are shown by their SMILES.

Experiment [1] deals with CSES2-SO2/3-derived differentiated cells. In words: Fluorescence microscopy imaging of differentiated CSES2-SO2/3 cells. It counts as cell-based, human. Conditions: 24 hours of exposure. The protocol: High content imaging of CSES2-SO2/3 fluorescent cells (mCherry+ or EGFP+) was performed in black clear-bottom 384-well assay plates (Falcon BD), using the Opera high-content screen imaging platform (PerkinElmer). Otherwise, light and fluorescence imaging of all cells was performed in 24-well, 6-well or 10 cm CELLSTAR® plates (Greiner Bio-One), using an Olympus CellR imaging station. Light imaging of developing mouse embryos was performed in 35 mm culture dishes (Falcon BD), using an Olympus IX70 microscope.
CSES2-SO2/3 is a genetically-labeled cell line that expresses mCherry under the promoter of the pluripotency hallmark gene OCT-4, and GFP under the promoter of the early endodermal marker SOX17. Therefore, these cells are red while undifferentiated, and become green upon their differentiation into the endodermal lineage [Kopper & Benvenisty, Stem Cell Research 8:335-345 (2011)]. Green early endodermal progenitor cells were generated from the red undifferentiated cells, using an 8-day differentiation protocol as described by Duan et al. [Stem Cells 28:674-686 (2010)].
In order to further verify the selectivity of the PluriSIns, and rule out any potential assay-related interference, undifferentiated and differentiated CSES2-SO2/3 cells were subjected to microscopy imaging after 24 hours of exposure to PluriSIns.

A further experiment concerns the target T1, SCD1 (Homo sapiens, UniProt O00767).
T1 sequence (O00767 1-359): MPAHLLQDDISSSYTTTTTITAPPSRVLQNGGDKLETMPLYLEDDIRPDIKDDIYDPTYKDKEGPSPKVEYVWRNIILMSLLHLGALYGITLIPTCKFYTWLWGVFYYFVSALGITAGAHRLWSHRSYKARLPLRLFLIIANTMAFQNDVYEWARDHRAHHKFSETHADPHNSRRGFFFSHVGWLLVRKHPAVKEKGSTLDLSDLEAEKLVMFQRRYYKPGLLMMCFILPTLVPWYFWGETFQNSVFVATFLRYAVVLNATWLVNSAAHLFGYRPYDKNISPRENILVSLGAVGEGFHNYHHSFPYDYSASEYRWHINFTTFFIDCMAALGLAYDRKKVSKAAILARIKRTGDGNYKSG
In words: In vitro biochemical screen for SCD1 inhibitors. Conditions: previous studies. An excerpt:
Inhibition of SCD1 has been reported to induce ER stress and UPR in some human cancer cell lines, leading to apoptosis of these cells [Roongta et al., Molecular Cancer Research 9:1551-1561 (2011); Minville-Walz et al., PloS One 5:e14363 (2010); Scaglia et al., PloS One 4:e6812 (2009); Hess et al., PloS One 5:e1394 (2010); Morgan-Lappe et al., Cancer Research 67:4390-4398 (2007); Mason et al., PLoS One 7:e33823 (2012)].

A further experiment relates to human ES cells. As to the kind of experiment: Global gene expression analysis (microarray). It counts as cell-based. Conditions: 12 hours. The protocol:
Human embryonic stem cells, and early endodermal progenitors derived from human embryonic stem cells, were treated for 12 hours with the compounds PluriSIn #1 (isonicotinic acid N′-phenylhydrazide) or PluriSIn #6 (2-hydroxy-2-(thiophen-2-yl)-2-phenylacetic acid 4-methyl-N′-phenylhydrazide), or with 0.2% DMSO control. Total RNA was extracted using a PerfectPure™ RNA Cultured Cell Kit (5 Prime) according to the manufacturer's protocol, and analyzed using a Human Genome U133A 2.0 microarray platform (Affymetrix); washing and scanning were performed according to the manufacturer's protocol. Original microarray data are accessible at the NCBI Gene Expression Omnibus (GEO) database under the accession number GSE37040.
Arrays were normalized using the MASS algorithm in the Affymetrix Expression Console. Probe sets absent in both control and treatment conditions were filtered out by the MASS Absent/Present call. Probe sets with expression values lower than 50 were raised to this level. Using a 2-fold threshold, a list of differentially expressed genes was comprised for each pair of conditions: embryonic stem cells treated with PluriSin #1 vs. control, ESCs treated with PluriSIn #6 vs. control, and endodermal progenitor cells treated with PluriSIn #1 vs. control. […]

Experiment [2] has as its system spliced isoform sXBP1 in ES-derived differentiated cells. In words: sXBP1 quantitative PCR, differentiated cells. In kind it is cell-based, human. Conditions: 20 μM PluriSIn #1 or 100 nm A939572.
Experiment [3] has as its system spliced isoform sXBP1 in human ES cells. As to the kind of experiment: sXBP1 quantitative PCR, ES cells. In kind it is cell-based. Conditions: 20 μM PluriSIn #1 (12 hours) or 100 nm A939572.

With `Cc1ccc(NNC(=O)C(O)(c2ccccc2)c2cccs2)cc1` (stereo not shown) [PluriSIn #6, 2-hydroxy-2-(thiophen-2-yl)-2-phenylacetic acid 4-methyl-N′-phenylhydrazide], in experiment [1], the “effect on differentiated cells” value is on record as “without exhibiting any detectable effect”. Besides, at SCD1, the “SCD1 inhibition in an in vitro biochemical screen” value was “possible direct inhibitors of SCD1”. For the same compound, in the experiment on human ES cells, the “gene expression changes associated with ER stress and UPR” value is “considerable gene expression changes”.

Turning to `O=C(NNc1ccccc1)c1ccncc1` [PluriSIn #1, isonicotinic acid N′-phenylhydrazide], in experiment [1], the “effect on differentiated cells” value is “without exhibiting any detectable effect”. Further, the “SCD1 inhibition in an in vitro biochemical screen” value on SCD1 is on record as “possible direct inhibitors of SCD1”. Moreover, the “expression of spliced isoform sXBP1, differentiated cells” value in experiment [2] is listed as “did not increase”. Besides, in experiment [3], the “increase in expression of spliced isoform sXBP1, ES cells” value is given as “approximately 3.5 fold”. Also, the “gene expression changes associated with ER stress and UPR” value in the experiment on human ES cells is “considerable gene expression changes”.

`CNC(=O)c1cccc(NC(=O)N2CCC(Oc3ccccc3Cl)CC2)c1` [A939572, 4-(2-chlorophenoxy)-N-(3-(methylcarbamoyl)-phenyl)piperidine-1-carboxamide, reference compound]: the “expression of spliced isoform sXBP1, differentiated cells” value in experiment [2] is on record as “did not increase expression”. Also, the “increase in expression of spliced isoform sXBP1, ES cells” value in experiment [3] is given as “approximately 2 fold”.
